According to patent US20170035708A1, “USE OF N-(4-TERT-BUTYLBENZYL)-3-CHLORO-N-[2-(4-CHLORO-3-ETHYL-PHENYL)-ETHYL]-2-FLUORO-5-TRIFLUOROMETHYL-BENZAMIDE FOR THE TREATMENT OF EYE DISEASES” (Hoffmann-La Roche Inc., priority 2013, published 2017):
Where “and” joins values, the source holds several entries; their conditions need not be identical. Identical values can stand only once.

What was measured:
[1] = molecular target: T1, cholesteryl ester transfer protein (CETP) (Homo sapiens, UniProt P11597); test: In vitro inhibition of CETP activity; format: biochemical
T1 sequence (P11597 18-493): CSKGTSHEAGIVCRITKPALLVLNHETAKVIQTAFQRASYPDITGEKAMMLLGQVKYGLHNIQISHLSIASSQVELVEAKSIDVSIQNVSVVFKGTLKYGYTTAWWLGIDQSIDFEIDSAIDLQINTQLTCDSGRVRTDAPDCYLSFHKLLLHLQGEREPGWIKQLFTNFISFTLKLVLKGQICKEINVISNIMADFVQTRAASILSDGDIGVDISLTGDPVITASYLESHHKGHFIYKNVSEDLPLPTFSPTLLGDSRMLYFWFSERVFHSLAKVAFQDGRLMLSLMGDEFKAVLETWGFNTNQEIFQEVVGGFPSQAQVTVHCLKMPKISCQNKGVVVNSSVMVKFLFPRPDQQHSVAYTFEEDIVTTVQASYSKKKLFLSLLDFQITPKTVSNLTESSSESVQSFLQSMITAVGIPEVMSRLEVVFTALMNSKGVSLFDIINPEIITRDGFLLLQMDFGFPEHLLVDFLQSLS

CETP activity = test: In vivo inhibition of CETP activity in hamsters
[2] = Pharmacokinetic properties and excretion in the rat; format: in vivo
Protocol: The pharmacokinetic (PK) properties of N-(4-tert-Butyl-benzyl)-3-chloro-N-[2-(4-chloro-3-ethyl-phenyl)-ethyl]-2-fluoro-5-trifluoromethyl-benz-amide were assessed in the rat and cynomolgus monkey. […] The very high protein binding, in combination with moderate membrane permeability, is the likely cause for the low volume of distribution observed in vivo.
In the rat and cynomolgus monkey, the major excretion route was the bile and feces, independent of the route of administration (approximately 92% of administered dose eliminated). Less than 1% of the dose was eliminated renally.

[3] = tested on: HDL-C, LDL-C, apoA-I, apoB-100; test: Plasma lipids and apolipoproteins after multiple doses for 14 days in clinical study; format: in vivo, human
Protocol: The CETP inhibition achieved with multiple doses of up to 420 mg N-(4-tert-Butyl-benzyl)-3-chloro-N-[2-(4-chloro-3-ethyl-phenyl)-ethyl]-2-fluoro-5-trifluoromethyl-benz-amide for 14 days in healthy subjects was associated with increase of HDL-C and apolipoprotein A-I (apoA-I) and decrease in LDL-C and apolipoprotein B-100 (apoB-100). […] The maximum mean increase from baseline ranged from 48% to 55% with the 180 and 420 mg doses, respectively, and was maintained over the entire dosing interval of 24 hours. For LDL-C, plasma levels decreased after 14 days of treatment with all N-(4-tert-Butyl-benzyl)-3-chloro-N-[2-(4-chloro-3-ethyl-phenyl)-ethyl]-2-fluoro-5-trifluoromethyl-benz-amide doses from 10 to 420 mg.

[4] = tested on: Human umbilical vein endothelial cells (HUVEC); test: alamarBlue viability assay in HUVECs; format: cell-based; details: 72 h
Protocol: Human umbilical vein endothelial cells (HUVEC), the growth medium EGM and the basal medium EBM was obtained from Lonza. Additional FCS for the starving medium was used form Invitrogen.
The viability assay with alamarBlue® from Invitrogen was done in 96 well gelatin coated plates from BD.
The tested compounds were dissolved in DMSO at a stock concentration of 10 mM.
VEGF-A165 was obtained from R&D Systems® and has been dissolved at a stock concentration of 100 ug/ml in PBS.
HUVECs cells were maintained in Endothial growth medium (EGM) until Passage 5. For the viability assay HUVECs have been seeded in EBM with 0.5% FCS on gelatin coated 96 well plates at a cell density of 11.000 cells/well. Outer wells were left free and have been filled with medium afterwards. Cells were incubated overnight in a cell culture incubator at 37° C. with 5% CO2. Compounds and VEGF have been diluted in EBM/0.5% FCS to a 20× working concentration. 5 ul of the 20× pre-dilution have been added to the cells. HUVECs which have to be intended to grow under hypoxia conditions have been transferred to a cell culture incubator with 1% O2, 5% CO2 and 37° C. HUVECs grown under normoxia conditions were incubated in a normal cell culture incubator. After 72 h, 11 ul of alamarBlue® have been added to each well of the cells subsequently incubated for 4 h in the cell culture incubator. The absorbance has been detected at 570 nm with a reference wavelength of 600 nm.

[5] = multiple doses of up to 420 mg for 14 days, healthy subjects

With `CCc1cc(CCN(Cc2ccc(C(C)(C)C)cc2)C(=O)c2cc(C(F)(F)F)cc(Cl)c2F)ccc1Cl` [Compound 1, N-(4-tert-Butyl-benzyl)-3-chloro-N-[2-(4-chloro-3-ethyl-phenyl)-ethyl]-2-fluoro-5-trifluoromethyl-benzamide] as the compound, how does the IC50 [1] read?
The IC50 was 8 nM and 7.21 nM.

And the “inhibition of CETP activity in vivo” value (CETP activity)?
The value was “inhibition of CETP activity has been demonstrated”.

What about the absolute oral bioavailability [2] of the same compound?
The absolute oral bioavailability was “relatively low”.

And the dose eliminated renally [2]?
The dose eliminated renally was “Less than 1%”.

What about the gastrointestinal absorption [2] of the same compound?
Its gastrointestinal absorption is “limited”.

And the terminal half-life [2]?
Its terminal half-life is “medium to long”.

What about the total systemic clearance [2] of the same compound?
Its total systemic clearance is “low”.

What about the volume of distribution [2] of the same compound?
Its volume of distribution is “low”.

What about the plasma protein binding ([2]; across species) of the same compound?
The plasma protein binding was “very high”.

And the “administered dose eliminated via bile and feces” value ([2]; independent of the route of administration)?
Its value is “approximately 92%”.

What about the “mean LDL-C decrease over the entire dosing interval” value ([3]; 180 mg dose and higher doses, 14 days) of the same compound?
The value was “at least 30%”.

And the “HDL-C maximum mean increase from baseline” value ([3]; 180 mg, 14 days)?
Its value is 48%.

What about the “HDL-C maximum mean increase from baseline” value ([3]; 420 mg, 14 days) of the same compound?
Its value is 55%.

What about the “apolipoprotein A-I (apoA-I)” value [3, 5] of the same compound?
The value was “increase”.

What about the “apolipoprotein B-100 (apoB-100)” value [3, 5] of the same compound?
Its value is “decrease”.

And the “alamarBlue assay OD 570 nm-600 nm” value ([4]; 4.1 nM, hypoxia)?
The value was −0.0059.

What about the “alamarBlue assay OD 570 nm-600 nm” value ([4]; 4.1 nM, normoxia) of the same compound?
Its value is 0.0073.

And the “alamarBlue assay OD 570 nm-600 nm” value ([4]; 10.2 nM, hypoxia)?
Its value is 0.0152.

What about the “alamarBlue assay OD 570 nm-600 nm” value ([4]; 10.2 nM, normoxia) of the same compound?
The value was 0.0075.

And the “alamarBlue assay OD 570 nm-600 nm” value ([4]; 25.6 nM, hypoxia)?
The value was 0.0144.

And the “alamarBlue assay OD 570 nm-600 nm” value ([4]; 25.6 nM, normoxia)?
The value was 0.0056.

And the “alamarBlue assay OD 570 nm-600 nm” value ([4]; 64 nM, hypoxia)?
The value was 0.0118.

What about the “alamarBlue assay OD 570 nm-600 nm” value ([4]; 64 nM, normoxia) of the same compound?
The value was 0.0062.

What about the “alamarBlue assay OD 570 nm-600 nm” value ([4]; 160 nM, hypoxia) of the same compound?
The value was 0.0233.

What about the “alamarBlue assay OD 570 nm-600 nm” value ([4]; 160 nM, normoxia) of the same compound?
Its value is 0.0127.

What about the “alamarBlue assay OD 570 nm-600 nm” value ([4]; 400 nM, hypoxia) of the same compound?
Its value is 0.0326.

And the “alamarBlue assay OD 570 nm-600 nm” value ([4]; 400 nM, normoxia)?
Its value is 0.0223.

What about the “alamarBlue assay OD 570 nm-600 nm” value ([4]; 1000 nM, hypoxia) of the same compound?
Its value is 0.0967.

What about the “alamarBlue assay OD 570 nm-600 nm” value ([4]; 1000 nM, normoxia) of the same compound?
Its value is 0.0600.

What about the “alamarBlue assay OD 570 nm-600 nm” value ([4]; 2500 nM, hypoxia) of the same compound?
Its value is 0.1488.

What about the “alamarBlue assay OD 570 nm-600 nm” value ([4]; 2500 nM, normoxia) of the same compound?
Its value is 0.1512.

What about the “effect on viability of HUVECs” value ([4]; hypoxia) of the same compound?
Its value is “induced a strong cell survival”.

And the “effect on viability of HUVECs” value ([4]; normoxia)?
Its value is “positive effect of viability”.
